{
  "source": "ChEMBL document CHEMBL2046275",
  "about": "“Cellular quantitative structure-activity relationship (Cell-QSAR): conceptual dissection of receptor binding and intracellular disposition in antifilarial activities of Selwood antimycins” (J Med Chem, 2012)",
  "data": [
    {"system": "Acanthocheilonema viteae", "experiment": "Antifilarial activity against Dipetalonema viteae after 120 hrs", "format": "functional, organism-based", "settings": "read-out: log(1/EC50) (converted)", "units": {"EC50": "µM"}, "values": [
      {"smiles": "O=C(Nc1ccc(Nc2ccc(SC(F)(F)F)cc2)c(Cl)c1)c1cc([N+](=O)[O-])ccc1O", "EC50": 0.028},
      {"smiles": "CCCCCCNC(=O)c1cccc(NC=O)c1O", "EC50": "> 10"},
      {"smiles": "O=C(Nc1ccc(C(O)c2ccccc2)cc1)c1cc([N+](=O)[O-])ccc1O", "note": "(stereo not drawn)", "EC50": "> 10"}
    ]}
  ]
}
